Laboratory results reported in article PMC10124317 (Biochemistry, 2023).

Molecular target: HDAC1 (Homo sapiens, UniProt Q13547)
Conditions: HDAC1 0.1 μM preincubated 10 min with 5 μM TSA, then 1b or 2b

Sequence of HDAC1 (Q13547 whole entry): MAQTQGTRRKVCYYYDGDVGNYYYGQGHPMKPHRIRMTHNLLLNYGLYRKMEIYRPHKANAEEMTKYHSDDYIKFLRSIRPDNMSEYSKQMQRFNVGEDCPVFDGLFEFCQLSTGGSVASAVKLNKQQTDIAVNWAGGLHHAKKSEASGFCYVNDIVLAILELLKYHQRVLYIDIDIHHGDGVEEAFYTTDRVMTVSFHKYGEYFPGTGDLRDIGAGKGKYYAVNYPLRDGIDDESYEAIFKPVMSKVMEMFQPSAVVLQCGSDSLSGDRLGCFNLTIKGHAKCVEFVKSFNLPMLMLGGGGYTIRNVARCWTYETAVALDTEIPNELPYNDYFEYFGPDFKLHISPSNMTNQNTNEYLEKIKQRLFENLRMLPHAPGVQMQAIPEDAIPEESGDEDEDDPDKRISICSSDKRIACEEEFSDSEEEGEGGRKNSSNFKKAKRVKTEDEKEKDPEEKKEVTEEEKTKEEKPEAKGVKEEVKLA

trichostatin A [TSA]
covalent modification of HDAC1 remaining after preincubation with TSA: ~ 10%
